# In patent US11229618B2 (Amarin Pharmaceuticals Ireland Limited, priority 2012, dated 2022):
# System: subjects with Age-Associated Memory Impairment
# Assay: AAMI 6-week study: CDR computerized cognitive test battery
# Format: in vivo, human
# Details: for Quality of Episodic Secondary Memory, LS mean difference versus placebo: overall; for Self-Rated Contentment, treatment effects: p<0.001
# Procedure: A single-center, 6-week, double-blind, randomizes, parallel-group, placebo-controlled, dose-ranging pilot study was performed to evaluate the efficacy, tolerability, and safety of >96% ethyl-EPA in subjects with subjective and objective memory impairment according to generally accepted criteria for Age-Associated Memory Impairment (“AAMI”). The primary objective of the study was to determine the effect of >96% ethyl-EPA 1 g, 2 g, and 4 g daily, compared to placebo, on cognitive performance in subjects with AAMI.
# Ninety-four subjects were randomized into one of six groups: 1 g E-EPA daily (n=23), 2 g E-EPA daily (n=24), 4 g E-EPA daily (n=24), 1 g placebo daily (n=7), 2 g placebo daily (n=8), and 4 g placebo daily (n=8). E-EPA was provided as 500 mg soft gel capsules containing>96% E-EPA and 0.2% dl-α-tocopherol as an antioxidant. Placebo capsules contained 467 mg of liquid paraffin and 0.2% dl-α-tocopherol. Ninety-one subjects completed the study. Two subjects in the 2 g E-EPA group and one subject in the 2 g placebo group discontinued the study.
# The study consisted of a screening visit, a training visit, and four study visits. At the screening visit, subjects' eligibility was determined through cognitive tests (verbal paired associated learning [PAL] subscale, vocabulary subtest, Memory Assessment Clinics Questionnaire [MAC-Q], mini mental state evaluation [MMSE] and MINI [mini international neuropsychiatric interview; sections 1 and 2 of Diagnostic and Statistical Manual of Mental Disorders, 4th Edition (DSM-IV) plus dysthymia]), haematology, clinical chemistry and 12-lead electrocardiogram (ECG). At the training visit, subjects were shown how to use the CDR computerized system. Subjects took study drug for 6 weeks and on Days 0, 14, 28 and 42, subjects underwent the CDR cognitive test battery.
# A selection of tasks from the CDR computerized cognitive assessment system were administered at Visit 2 (training visit), Visit 3 (baseline), Visit 4 (Day 14), Visit 5 (Day 28) and Visit 6 (Day 42). Parallel forms of the tests were presented at each testing session. All tasks were computer-controlled, the information presented on high resolution monitors, and the responses recorded via a response model containing two buttons: one marked ‘no’ and the other ‘yes’. Five CDR composite scores were used as the primary/secondary outcome variables. The task titles were: • Word Presentation • Immediate Word Recall • Picture Presentation • Simple Reaction Time • Digit Vigilance • Choice Reaction Time • Spatial Working Memory • Numeric Working Memory • Delayed Word Recall • Word Recognition • Picture Recognition • Bond-Lader Visual Analogue Scales of Mood and Alertness • Screen, Using the Computer Mouse
# Difference from baseline data for each major variable was evaluated by an Analysis of Covariance (“ANCOVA”) using SAS® PROC MIXED Version 8.2. Fixed effects for treatment, day, time point, treatment by day, treatment by time point, treatment by day by time-point were fitted. Subject within treatment was fitted as a repeated effect using the repeated statement. The compound symmetry covariance structure was used. Subjects' time-matched predose assessments on Day 0 were used as a covariate in the analysis.
# Least squares means (LS means) were calculated for treatment by day, treatment by time-point and treatment by day by time-point interaction. This formal analysis was conducted for the ITT and Study PP Populations separately.
# A post-hoc analysis compared the individual placebo groups (1 g, 2 g and 4 g paraffin oil) with the corresponding ethyl-EPA doses.
# [1] = post-hoc analysis, 1 g, Days 14 and 28
structure (smiles),measurement,setting,value
"CC/C=C\C/C=C\C/C=C\C/C=C\C/C=C\CCCC(=O)OCC [IPE, all-cis eicosa-5,8,11,14,17-pentaenoic acid ethyl ester]","Continuity of Attention, effect of treatment",ITT,no statistically significant effect of treatment
same,"Quality of Episodic Secondary Memory, effect of treatment",ITT,no statistically significant effect of treatment
same,"Self-Rated Alertness, effect of treatment",ITT,no statistically significant effect of treatment
same,"Self-Rated Calmness, effect of treatment",ITT,no statistically significant effect of treatment
same,"Self-Rated Contentment, LS mean difference to placebo",ITT,no statistically significant effects
same,"Speed of Memory and contributing subtasks, effect of treatment",ITT,no statistically significant effects of treatment
same,"Power of Attention, effect of treatment","ITT, 1, 2, 4 g daily vs placebo",no statistically significant effect of treatment
same,"Immediate Word Recall Accuracy, LS mean difference versus placebo","ITT, 1 g, AM 1, p=0.040",statistically significant decreases
same,"Immediate Word Recall Accuracy, LS mean difference versus placebo","ITT, 1 g, Day 14, p=0.028",statistically significant decreases
same,Picture Recognition Speed versus placebo,"ITT, 1 g, Day 14 at AM 2, p=0.084",trends for benefits
same,"Immediate Word Recall Accuracy, LS mean difference versus placebo","ITT, 1 g, Day 14 at PM 2, p=0.020",statistically significant decreases
same,"Word Recognition Sensitivity Index, LS mean difference versus placebo","ITT, 1 g, Day 28, p=0.024",statistically significant decreases
same,Picture Recognition Speed versus placebo,"ITT, 1 g, Day 28 at AM 1, p=0.085",trends for benefits
same,"Picture Recognition Sensitivity Index, LS mean difference versus placebo","ITT, 1 g, Day 28 at AM 2, p=0.017",statistically significant decrease
same,"Picture Recognition Sensitivity Index, LS mean difference versus placebo","ITT, 1 g, Day 28 at PM 2, p=0.040",statistically significant decrease
same,"Quality of Episodic Secondary Memory, LS mean difference versus placebo","ITT, 1 g, p=0.040",statistically significant decreases
same,"Immediate Word Recall Accuracy, LS mean difference versus placebo","ITT, 2 g, AM 1, p=0.028",statistically significant decreases
same,"Immediate Word Recall Accuracy, LS mean difference versus placebo","ITT, 2 g, Day 28, p=0.017",statistically significant decreases
same,"Self-Rated Alertness, LS mean difference versus placebo","ITT, 2 g, Day 28, p=0.047",statistically significant decrease in ratings
same,"Immediate Word Recall Accuracy, LS mean difference versus placebo","ITT, 2 g, Day 28 at AM 1, p=0.006",statistically significant decreases
same,"Self-Rated Alertness, LS mean difference versus placebo","ITT, 2 g, Day 28 at AM 2, p=0.041",statistically significant decrease in ratings
same,"Quality of Episodic Secondary Memory, LS mean difference versus placebo","ITT, 2 g, p=0.035",statistically significant decreases
same,"Spatial Working Memory Speed, LS mean difference versus placebo","ITT, 4 g, Day 14 at PM 1, p=0.048",statistically significant benefit
same,"Word Recognition Sensitivity Index, LS mean difference versus placebo","ITT, 4 g, Day 28 at PM 2, p=0.030",statistically significant decrease
same,"Word Recognition Sensitivity Index, LS mean difference versus placebo","ITT, 4 g, Day 42, p=0.038",statistically significant decreases
same,"Spatial Working Memory Speed, LS mean difference versus placebo","ITT, 4 g, Day 42 at AM 1, p=0.061",trend for a benefit
same,"Word Recognition Sensitivity Index, LS mean difference versus placebo","ITT, 4 g, PM 2, p=0.045",statistically significant decrease
same,"Self-Rated Contentment, treatment effects",ITT,statistically significant treatment by day interaction
same,"Choice Reaction Time, treatment effects","ITT, p=0.011",statistically significant treatment by day interaction
same,"Spatial Working Memory Sensitivity Index, treatment effects","ITT, p=0.015",statistically significant treatment by day interaction
same,"Quality of Working Memory, treatment effects","ITT, p=0.019",statistically significant treatment by day interaction
same,"Numeric Working Memory Sensitivity Index, treatment effects","ITT, p=0.089",statistical trend for a treatment by day interaction
same,"Continuity of Attention, effect of treatment",Study Per Protocol,no statistically significant effect of treatment
same,"Digit Vigilance Targets Detected, treatment effects","Study Per Protocol, p=0.040",statistically significant treatment by time-point interaction
same,"Power of Attention, effect of treatment",Study Per-Protocol,no statistically significant effect of treatment
same,"Quality of Episodic Secondary Memory, effect of treatment",Study Per-Protocol,no statistically significant effects of treatment
same,"Self-Rated Alertness, effect of treatment",Study Per-Protocol,no statistically significant effect of treatment
same,"Self-Rated Calmness, effect of treatment",Study Per-Protocol,no statistically significant effect of treatment
same,"Self-Rated Contentment, LS mean difference to placebo",Study Per-Protocol,no statistically significant effects
same,"Speed of Memory and contributing subtasks, effect of treatment",Study Per-Protocol,no statistical significant effects of treatment
same,"Immediate Word Recall Accuracy, LS mean difference to placebo","Study Per-Protocol, 1 g, AM 1, p=0.038",statistically significant decreases
same,"Immediate Word Recall Accuracy, LS mean difference to placebo","Study Per-Protocol, 1 g, AM 2, p=0.048",statistically significant decreases
same,"Immediate Word Recall Accuracy, LS mean difference to placebo","Study Per-Protocol, 1 g, Day 14, p=0.024",statistically significant decreases
same,"Immediate Word Recall Accuracy, LS mean difference to placebo","Study Per-Protocol, 1 g, Day 14 at PM 2, p=0.019",statistically significant decreases
same,"Word Recognition Sensitivity Index, LS mean difference to placebo","Study Per-Protocol, 1 g, Day 28, p=0.027",statistically significant decreases
same,"Picture Recognition Sensitivity Index, LS mean difference versus placebo","Study Per-Protocol, 1 g, Day 28 at AM 2, p=0.020",statistically significant decreases
same,"Picture Recognition Sensitivity Index, LS mean difference versus placebo","Study Per-Protocol, 1 g, Day 28 at PM 2, p=0.026",statistically significant decreases
same,"Quality of Episodic Secondary Memory, LS mean difference versus placebo","Study Per-Protocol, 1 g, p=0.043",statistically significant decreases
same,"Immediate Word Recall Accuracy, LS mean difference to placebo","Study Per-Protocol, 2 g, AM 1, p=0.029",statistically significant decreases
same,"Immediate Word Recall Accuracy, LS mean difference to placebo","Study Per-Protocol, 2 g, Day 28, p=0.017",statistically significant decreases
same,"Self-Rated Alertness, LS mean difference versus placebo","Study Per-Protocol, 2 g, Day 28, p=0.035",statistically significant decrease in ratings
same,"Immediate Word Recall Accuracy, LS mean difference to placebo","Study Per-Protocol, 2 g, Day 28 at AM 1, p=0.006",statistically significant decreases
same,"Self-Rated Alertness, LS mean difference versus placebo","Study Per-Protocol, 2 g, Day 28 at AM 2, p=0.033",statistically significant decrease in ratings
same,"Quality of Episodic Secondary Memory, LS mean difference versus placebo","Study Per-Protocol, 2 g, p=0.036",statistically significant decreases
same,"Word Recognition Sensitivity Index, LS mean difference to placebo","Study Per-Protocol, 4 g, Day 42, p=0.038",statistically significant decreases
same,"Self-Rated Calmness, LS mean difference versus placebo","Study Per-Protocol, 4 g, Day 42 at PM 1, p=0.071",statistical trend for an increase in ratings
same,"Self-Rated Contentment, treatment effects",Study Per-Protocol,statistically significant treatment by day interaction
same,"Choice Reaction Time, treatment effects","Study Per-Protocol, p=0.013",statistically significant treatment by day interaction
same,"Spatial Working Memory Sensitivity Index, treatment effects","Study Per-Protocol, p=0.014",statistically significant treatment by day interaction
same,"Quality of Working Memory, treatment effects","Study Per-Protocol, p=0.021",statistically significant treatment by day interaction
same,Self-Rated Calmness versus corresponding placebo,post-hoc analysis,no differences between active treatment and placebo
same,Self-rated Alertness versus corresponding placebo,[1],decreases in ratings
same,Self-rated Contentment versus corresponding placebo,[1],decreases in ratings
same,Power of Attention versus corresponding placebo,"post-hoc analysis, 4 g, Day 42",overall benefit versus the corresponding placebo
same,Spatial Working Memory Sensitivity Index versus corresponding placebo,"post-hoc analysis, 4 g, Day 42, Study PP Population",overall benefit
same,Simple Reaction Time versus corresponding placebo,"post-hoc analysis, 4 g, PM 2 collapsed across days and several time-points on Days 14 and 42",improvements in performance
same,Choice Reaction Time versus corresponding placebo,"post-hoc analysis, 4 g, all study days",overall benefit versus corresponding placebo
same,subtask measures of Speed of Memory versus corresponding placebo,"post-hoc analysis, mostly for 1 g",some signs of improvement in performance
